We go through ten compounds from US20240228465A1, “SUBSTITUTED PYRIDINE N-OXIDE DERIVATIVES USEFUL AS A FACTOR XIA INHIBITORS” (Janssen Pharmaceutica NV, priority 2021, published 2024).

One may read the IC50 as the concentration needed to halve the response being measured.

One assay deals with human plasma kallikrein (Homo sapiens, UniProt P03952). Description: Kallikrein inhibition assay utilizing a quenched AMC peptide substrate (FLINT). It counts as biochemical. As to the method:
Biological Example 2: Kallikrein Inhibition Assay Utilizing a Quenched AMC Peptide Substrate
A fluorescence intensity (FLINT) based assay was used to monitor inhibition of human plasma kallikrein. The peptide substrate, Z-Gly-Pro-Arg-AMC (Purchased from Bachem; Catalog #I-1150) was chosen based on its relatively low KM for kallikrein which enables running the assay at lower substrate concentrations to control background fluorescence. The kinetic parameters for this substrate were determined by fitting titration data to the Michaelis-Menten equation yielding a KM=40 μm, kcat=0.76 s^−1, and kcat/KM=18932 M^−1s^−1.
The Kallikrein FLINT assay was used with the following Z-Gly-Pro-Arg-AMC assay buffer: 50 mM Tris, pH 7.5, 100 mM NaCl, 5 mM CaCl2, 0.1 mg/mL BSA, 0.03% CHAPS. Assay buffer was prepared by mixing all ingredients fresh. 2× Z-Gly-Pro-Arg-AMC peptide substrate was prepared by diluting 10 mM stock into 1× assay buffer for a 100 μM working concentration (50 μM final concentration). The 2× kallikrein stock solution was prepared by diluting 14.76 μM stock in 1× assay buffer for a 4 nM working stock solution (2 nM final concentration).
Test compound(s) were run in an 11-point, 3-fold serial dilution with a final top compound concentration of 1 μM. Final DMSO in assay was 2%. Plasma kallikrein was pre-incubated for 30-minute with compound and then 50 μM substrate was added to initiate the reaction. The assay was run with either end point (EP) reads at 30 min or kinetic (KIN) reads at 5 min intervals over 30 minutes. The time course was linear using 2 nM kallikrein greater than 30 minutes. More specifically, the assay was run as follows: • 100 nL of 0.1 mM test compound was dispensed into black 384-well non-binding Greiner BioOne 784900 plate for 1 μM final concentration; • 5 μL of 1× assay buffer was dispensed to columns 24 (low control) and 5 μL 2× human kallikrein enzyme solution was dispensed to columns 1-23 (column 23 high control); • the plate was centrifuged with a “cover” plate at 500 rpm for 1 min • the plate was pre-incubated for 30 minutes at room temperature with plate covered; • 5 μL of 2× Z-Gly-Pro-Arg-AMC peptide substrate was dispensed into the entire plate, columns 1-24; • the plate was centrifuged with a “cover” plate at 500 rpm for 1 min; • the plate was read monitoring fluorescence intensity on the BMG PHERAStar at room temperature, using fluorescence module 340 nm/440 nm.
(§1) Percent inhibition (IC50) curves were generated per compound tested, and data was analyzed using a 4-parameter logistic fit using GeneData Screener. The relative fluorescence unit (RFU) values were normalized to percent inhibition using the following equation:
% inhibition=((HC−LC)−(compound−LC)/(HC−LC))*100 • where LC—low control=mean signal of human kallikrein enzyme or 100% inhibition of human kallikrein enzyme; HC—high control=mean signal of Factor XIa+Z-Gly-Pro-Arg-AMC peptide substrate with DMSO only.
(§2) An 11-point dose response curve for the test compound(s) was generated using GENDATA to determine IC50 value based on the following equation:
Y=Bottom+(Top−Bottom)/(1+10^((log IC50−X)*HillSlope)) • where Y is the % inhibition in the presence of X inhibitor concentration, Top=high control=mean signal of human kallikrein enzyme+Z-Gly-Pro-Arg-AMC peptide substrate with DMSO only; Bottom=low control—mean signal of no human kallikrein enzyme or 100% inhibition of human kallikrein enzyme; HillSlope—Hill coefficient; and IC50=concentration of compound with 50% inhibition in relation to top/high control.
Representative compounds of formula (I) of the present invention were tested according to the procedure described in Biological Example 1 and Biological Example 2 above, with results as listed in Table 3, below. Results listed in the (ER) column were measured using endpoint reads where a single fluorescence reading was measured for each well at a 30 min timepoint. […]

A further assay has as its target Factor XIa (Homo sapiens, UniProt P03951). In words: Factor XIa inhibition assay utilizing a fluorophore-quencher pair peptide substrate (FLINT). It counts as biochemical.
Source text: Biological Example 1: Factor XIa Inhibition Assay Utilizing a Fluorophore-Quencher Pair Peptide Substrate
A fluorescence intensity (FLINT) based assay was used to monitor inhibition of Factor XIa. The peptide substrate, 5Fam-KLTRAETV-K5Tamra (purchased from New England Peptide) was chosen based on the […]. Conversion of zymogen […]. The custom peptide used in this assay was based on the Arg146 cleavage site of FXI. The peptide substrate was designed with a fluorophore-quencher pair, where the fluorescence is quenched until FXIa cleaves the 8-mer peptide after the Arg residue. The substrate KM was fit to a substrate inhibition model whereby kcat=0.86 s^−1, KM=12.4 μM, Ki=61.6 μM with an enzymatic efficiency, and kcat/KM=69523 M^−1s^−1.
The Factor XIa FLINT assay was used with the following 5Fam-KLTRAETV-K5Tamra assay buffer: 50 mM Tris, pH 7.5, 100 mM NaCl, 5 mM CaCl2, 0.1 mg/mL BSA, 0.03% CHAPS. Assay buffer was prepared by mixing all ingredients fresh. 5Fam-KLTRAETV-K5Tamra peptide substrate was first prepared at 10 mM in 100% DMSO, then diluted to 3 mM in 100% DMSO. Assay buffer was then added directly to the 3 mM stock of substrate to prepare the 30 μM 2× working concentration (15 μM final concentration). The 2× Factor XIa stock solution was prepared by diluting 6.562 μM stock in 1× assay buffer for a […].
Test compound(s) were run in an 11-point, 3-fold serial dilution with a final top compound concentration of 100 nM. Final DMSO in assay was 2%. FXIa was preincubated with compound for 30-minutes and then substrate was added to initiate the reaction. The assay was run with either end point (EP) reads at 30 min or kinetic (KIN) reads at 5 min intervals over 30 minutes. The time course was linear using 100 μM FXIa greater than 30 minutes. More specifically, the assay was run as follows: • 100 nL of 0.01 mM test compound was dispensed into black 384-well non-binding Greiner BioOne 784900 plate for 0.1 μM final concentration; • 5 μL of 1× assay buffer was dispensed to column 24 (low control) and 5 μL 2× Factor XIa solution was dispensed to columns 1-23 (column 23 high control); • the plate was centrifuged with a “cover” plate at 500 rpm for 1 min • the plate was pre-incubated for 30 minutes at room temperature with plate covered; • 5 μL of 2× 5Fam-KLTRAETV-K5Tamra peptide substrate was dispensed into the entire plate, columns 1-24; • the plate was centrifuged with a “cover” plate at 500 rpm for 1 min; • the plate was read monitoring fluorescence intensity on the BMG PHERAStar at room temperature, using fluorescence module 485 nm/520 nm.
as §1
[formula] • where LC—low control=mean signal of no Factor XIa or 100% inhibition of Factor XIa; HC—high control=mean signal of Factor XIa+5Fam-KLTRAETV-K5Tamra peptide substrate with DMSO only.
as §2
[formula] • where Y is the % inhibition in the presence of X inhibitor concentration, Top=high control=mean signal of Factor XIa+5Fam-KLTRAETV-K5Tamra peptide substrate with DMSO only; Bottom=low control—mean signal of no Factor XIa or 100% inhibition of Factor XIa; HillSlope—Hill coefficient; and IC50=concentration of compound with 50% inhibition in relation to top/high control.
Representative compounds of formula (I) of the present invention were tested according to the procedure described in Biological Example 1 and Biological Example 2 above, with results as listed in Table 3, below. […]

The mark [1] stands for this setting: kinetic reads, unit μM, read-out: Kallikrein (KIN) IC50.
[2] abbreviates: kinetic reads at 5 min intervals over 30 min, 30 min preincubation, read-out: Kallikrein (KIN) IC50.
Setting [3] is: kinetic reads at 5 min intervals over 30 min, 30 min preincubation, read-out: FXIa (KIN) IC50.

Read-outs that look alike come from different tables or passages of the source.

Chain of human plasma kallikrein (P03952 391-638 limits assumed): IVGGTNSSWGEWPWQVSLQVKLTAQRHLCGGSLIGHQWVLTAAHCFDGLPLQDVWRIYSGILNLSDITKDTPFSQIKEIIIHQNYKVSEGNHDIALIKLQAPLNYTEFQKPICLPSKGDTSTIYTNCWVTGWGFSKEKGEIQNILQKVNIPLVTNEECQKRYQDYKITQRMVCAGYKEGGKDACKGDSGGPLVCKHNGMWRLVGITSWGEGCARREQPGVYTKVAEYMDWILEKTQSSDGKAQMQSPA
Chain of human plasma kallikrein (P03952 20-390 partner limits assumed): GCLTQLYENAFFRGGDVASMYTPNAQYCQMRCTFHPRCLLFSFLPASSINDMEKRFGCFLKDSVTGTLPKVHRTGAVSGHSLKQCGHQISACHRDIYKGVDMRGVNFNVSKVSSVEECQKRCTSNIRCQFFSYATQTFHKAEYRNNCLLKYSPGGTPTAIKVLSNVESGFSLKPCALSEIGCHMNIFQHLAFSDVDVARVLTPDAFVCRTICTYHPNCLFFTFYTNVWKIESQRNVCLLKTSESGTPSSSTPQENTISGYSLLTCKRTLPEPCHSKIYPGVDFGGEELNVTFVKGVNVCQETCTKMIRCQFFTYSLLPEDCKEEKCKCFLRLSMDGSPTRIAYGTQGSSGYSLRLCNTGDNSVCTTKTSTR
Chain of Factor XIa (P03951 388-625 limits assumed): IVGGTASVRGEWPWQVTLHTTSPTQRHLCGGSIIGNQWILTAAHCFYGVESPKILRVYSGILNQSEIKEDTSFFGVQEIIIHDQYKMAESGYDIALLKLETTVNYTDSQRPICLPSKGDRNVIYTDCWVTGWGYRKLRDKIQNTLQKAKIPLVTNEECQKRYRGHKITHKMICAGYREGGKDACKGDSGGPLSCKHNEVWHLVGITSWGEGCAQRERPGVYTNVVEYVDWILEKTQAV
Chain of Factor XIa (P03951 19-387 partner limits assumed): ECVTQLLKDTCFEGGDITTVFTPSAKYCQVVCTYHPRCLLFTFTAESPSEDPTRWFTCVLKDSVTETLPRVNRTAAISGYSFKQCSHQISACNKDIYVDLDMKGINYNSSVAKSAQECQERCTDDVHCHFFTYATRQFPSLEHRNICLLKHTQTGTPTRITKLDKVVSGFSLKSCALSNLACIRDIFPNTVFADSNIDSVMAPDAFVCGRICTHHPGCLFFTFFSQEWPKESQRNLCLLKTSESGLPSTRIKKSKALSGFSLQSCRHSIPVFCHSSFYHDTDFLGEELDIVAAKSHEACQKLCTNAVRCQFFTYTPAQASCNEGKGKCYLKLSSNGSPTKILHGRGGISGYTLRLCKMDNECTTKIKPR

In the case of `[O-][n+]1cc(-c2c(-n3cc(C(F)(F)F)nn3)ccc(Cl)c2F)ccc1[C@H](CCOC(F)F)n1cnc(-c2ncnn2C(F)F)c1` [M6, (S)-5-(3-Chloro-2-fluoro-6-(4-(trifluoromethyl)-1H-1,2,3-triazol-1-yl)phenyl)-2-(3-(difluoromethoxy)-1-(4-(1-(difluoromethyl)-1H-1,2,4-triazol-5-yl)-1H-imidazol-1-yl)propyl)pyridine 1-oxide], the 50% inhibitory concentration (IC50) at human plasma kallikrein (setting [1]) was over 10 µM; on Factor XIa (kinetic reads, unit μM printed in the cell, read-out: FXIa (KIN) IC50), over 10 µM.

`[O-][n+]1cc(-c2c(-n3cc(C(F)(F)F)nn3)ccc(Cl)c2F)ccc1[C@@H](CCOC(F)F)n1cnc(-c2ncnn2C(F)F)c1` [M7, (R)-5-(3-Chloro-2-fluoro-6-(4-(trifluoromethyl)-1H-1,2,3-triazol-1-yl)phenyl)-2-(3-(difluoromethoxy)-1-(4-(1-(difluoromethyl)-1H-1,2,4-triazol-5-yl)-1H-imidazol-1-yl)propyl)pyridine 1-oxide]: the half-inhibitory concentration (IC50) on human plasma kallikrein (setting [2]) was 0.338 µM; on Factor XIa (setting [3]) it was about 0.033 µM.

For the compound `Cn1nncc1-c1cn([C@@H](CCOC(F)F)c2ccc(-c3c(-n4cc(C(F)(F)F)nn4)ccc(Cl)c3F)c[n+]2[O-])cn1` [M8, (S)-5-(3-Chloro-2-fluoro-6-(4-(trifluoromethyl)-1H-1,2,3-triazol-1-yl)phenyl)-2-(3-(difluoromethoxy)-1-(4-(1-methyl-1H-1,2,3-triazol-5-yl)-1H-imidazol-1-yl)propyl)pyridine 1-oxide], the 50% inhibitory concentration (IC50) on human plasma kallikrein (setting [1]) was over 20 µM; on Factor XIa (setting [3]) it was over 0.2 µM.

Regarding `Cn1ncnc1-c1cn(C(CCOC(F)F)c2ccc(-c3c(-n4cc(C(F)(F)F)nn4)ccc(Cl)c3F)c[n+]2[O-])cn1` (centres unmarked) [M9, 5-(3-Chloro-2-fluoro-6-(4-(trifluoromethyl)-1H-1,2,3-triazol-1-yl)phenyl)-2-(3-(difluoromethoxy)-1-(4-(1-methyl-1H-1,2,4-triazol-5-yl)-1H-imidazol-1-yl)propyl)pyridine 1-oxide], the figures for the IC50 at human plasma kallikrein (setting [2]) and on Factor XIa (setting [3]) were 0.543 µM and 0.0043 µM, respectively.

Take `Cn1nncc1-c1cn([C@H](CCOC(F)F)c2ccc(-c3c(-n4cc(C(F)(F)F)nn4)ccc(Cl)c3F)c[n+]2[O-])cn1` [M10, (R)-5-(3-Chloro-2-fluoro-6-(4-(trifluoromethyl)-1H-1,2,3-triazol-1-yl)phenyl)-2-(3-(difluoromethoxy)-1-(4-(1-methyl-1H-1,2,3-triazol-5-yl)-1H-imidazol-1-yl)propyl)pyridine 1-oxide]: the figures for the half-inhibitory concentration (IC50) at human plasma kallikrein (setting [2]) and at Factor XIa (setting [3]) were 0.0489 µM and 0.0005 µM, respectively.

As for `Cn1nncc1-c1cn([C@@H](CCOC(F)F)c2ccc(-c3c(-n4cc(Cl)nn4)ccc(Cl)c3F)c[n+]2[O-])cn1` [M11, (S)-5-(3-Chloro-6-(4-chloro-1H-1,2,3-triazol-1-yl)-2-fluorophenyl)-2-(3-(difluoromethoxy)-1-(4-(1-methyl-1H-1,2,3-triazol-5-yl)-1H-imidazol-1-yl)propyl)pyridine 1-oxide], the IC50 at human plasma kallikrein (setting [1]) is over 20 µM; at Factor XIa (setting [3]), over 0.2 µM.

`Cn1nncc1-c1cn([C@H](CCOC(F)F)c2ccc(-c3c(-n4cc(Cl)nn4)ccc(Cl)c3F)c[n+]2[O-])cn1` [M12, (R)-5-(3-Chloro-6-(4-chloro-1H-1,2,3-triazol-1-yl)-2-fluorophenyl)-2-(3-(difluoromethoxy)-1-(4-(1-methyl-1H-1,2,3-triazol-5-yl)-1H-imidazol-1-yl)propyl)pyridine 1-oxide]: the IC50 on human plasma kallikrein (setting [2]) worked out at 0.0159 µM; at Factor XIa (setting [3]), 0.0003 µM.

Turning to `[O-][n+]1cc(-c2c(-n3cnnn3)ccc(Cl)c2F)ccc1[C@H](CCOC(F)F)n1cnc(-c2cnnn2C(F)F)c1` [M13, (S)-5-(3-Chloro-2-fluoro-6-(1H-tetrazol-1-yl)phenyl)-2-(3-(difluoromethoxy)-1-(4-(1-(difluoromethyl)-1H-1,2,3-triazol-5-yl)-1H-imidazol-1-yl)propyl)pyridine 1-oxide], the values for the concentration for half-maximal inhibition (IC50) at human plasma kallikrein (setting [1]) and on Factor XIa (setting [3]) were over 2 µM and over 0.2 µM, respectively.

As to `[O-][n+]1cc(-c2c(-n3cnnn3)ccc(Cl)c2F)ccc1[C@@H](CCOC(F)F)n1cnc(-c2cnnn2C(F)F)c1` [M14, (R)-5-(3-Chloro-2-fluoro-6-(1H-tetrazol-1-yl)phenyl)-2-(3-(difluoromethoxy)-1-(4-(1-(difluoromethyl)-1H-1,2,3-triazol-5-yl)-1H-imidazol-1-yl)propyl)pyridine 1-oxide], the figures for the IC50 on human plasma kallikrein (setting [2]) and at Factor XIa (setting [3]) were 0.029 µM and 0.0005 µM, respectively.

For `O=C(O)c1ccc(-c2cn(C(CC3CC3)c3ccc(-c4cc(Cl)ccc4-n4cnnn4)c[n+]3[O-])nn2)cc1` (centres unmarked) [T1, 2-(1-(4-(4-Carboxyphenyl)-1H-1,2,3-triazol-1-yl)-2-cyclopropylethyl)-5-(5-chloro-2-(1H-tetrazol-1-yl)phenyl)pyridine 1-oxide], the half-inhibitory concentration (IC50) was found to be 0.0835 µM on human plasma kallikrein (end point read at 30 min, 30 min preincubation, read-out: Kallikrein (EP) IC50) and 0.0016 µM at Factor XIa (end point read at 30 min, 30 min preincubation, read-out: FXIa (EP) IC50).
